pIC50: −log10 of the molar value. Starred links: 1 amine or outer side, 2 acyl side, 3 side chain; linkers in the order of their positions; H or OH if unused. Positions of bridges follow the written chain, without caps; N, C: chain ends. Non-standard residues stand in square brackets, D forms with d. Residues, ends and D or L forms follow the SMILES beside them. Groups on a side chain read outwards from the residue. *: point of attachment. X2 = C[N+](C)(CCNC(=O)COCCOCCNC(=O)COCCOCCNC(=O)CC[C@H](NC(=O)CCCCCCCCCCCCCCCCC(=O)O)C(=O)O)CC(=O)*; X7 = C[N+](C)(CCNC(=O)CC[C@H](NC(=O)CCCCCCCCCCCCCCCCC(=O)O)C(=O)O)CC(=O)*; X4 = O=C(O)CCCCCCCCCCCCCCC(=O)NC[C@H](NC(=O)CCCCCCCCCCCCCCC(=O)O)C(=O)*; Decanoyl(10-(4-HOOC-PhO)) = O=C(O)c1ccc(OCCCCCCCCCC(=O)*)cc1; X6 = C[N+](C)(CCNC(=O)CCCCCCCCCCCCCCCCC(=O)O)CC(=O)*; Trp(7-Me) = Cc1cccc2c(C[C@H](N)C(=O)O)c[nH]c12; C18 diacid = O=C(O)CCCCCCCCCCCCCCCCC(=O)*; γGlu = O=C(O)[C@H](CCC(=O)[*:2])N[*:1]; 2Nal = N[C@@H](Cc1ccc2ccccc2c1)C(=O)O; AEF = NCCOc1ccc(C[C@H](N)C(=O)O)cc1; 3Pal = N[C@@H](Cc1cccnc1)C(=O)O; Pen = CC(C)(S)[C@H](N)C(=O)O; Thp = NC1(C(=O)O)CCOCC1; AEEA = NCCOCCOCC(=O)O; Sar = CNCC(=O)O
molecular target: T1, IL-23R (Homo sapiens, UniProt Q5VWK5); experiment: IL23R Reporter Assay; type: cell-based
T1 construct: HEK293 cells containing IL-23R, IL-12RP31 and a firefly luciferase reporter gene driven by a STAT-inducible promoter (Promega); host or cells: HEK293
T1 sequence (Q5VWK5 24-629): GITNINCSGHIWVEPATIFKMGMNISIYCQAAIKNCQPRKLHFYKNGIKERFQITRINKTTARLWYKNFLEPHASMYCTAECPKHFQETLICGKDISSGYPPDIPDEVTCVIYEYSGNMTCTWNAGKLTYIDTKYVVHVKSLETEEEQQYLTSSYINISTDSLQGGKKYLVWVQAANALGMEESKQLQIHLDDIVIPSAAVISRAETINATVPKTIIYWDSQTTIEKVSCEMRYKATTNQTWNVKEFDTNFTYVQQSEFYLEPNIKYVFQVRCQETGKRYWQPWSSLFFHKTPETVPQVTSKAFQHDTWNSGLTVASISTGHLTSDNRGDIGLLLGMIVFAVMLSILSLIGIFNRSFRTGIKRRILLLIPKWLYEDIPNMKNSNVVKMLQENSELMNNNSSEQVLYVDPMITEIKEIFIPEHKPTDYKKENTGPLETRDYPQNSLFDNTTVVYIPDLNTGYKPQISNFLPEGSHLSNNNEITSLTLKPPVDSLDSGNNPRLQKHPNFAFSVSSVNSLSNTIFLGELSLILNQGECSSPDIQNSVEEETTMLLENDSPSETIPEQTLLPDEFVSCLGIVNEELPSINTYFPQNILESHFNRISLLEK
How it was run: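 Reporter cells read out IL-23-driven STAT3 activation; compounds were serially diluted in DMSO. After 5 h at 37 °C, 5% CO2, cells were brought to 20 °C and luminescence was measured with BioGlo reagent.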

pIC50 | Structure (SMILES)
10.05 | CC(=O)NCCCC[C@@H]1NC(=O)[C@H](Cc2c[nH]c3c(C)cccc23)NC(=O)[C@H]([C@@H](C)O)NC(=O)[C@H](CC(N)=O)NC(=O)[C@@H](NC(C)=O)C(C)(C)SSC(C)(C)[C@@H](C(=O)N[C@@H](Cc2ccc(OCCN)cc2)C(=O)N[C@@H](Cc2ccc3ccccc3c2)C(=O)NC2(C(=O)N[C@@H](CCCCNC(=O)COCCOCCNC(=O)COCCOCCNC(=O)[C@@H]3CCCN3C(=O)CC[C@H](NC(=O)CCCCCCCCCCCCCCCCC(=O)O)C(=O)O)C(=O)N[C@@H](CC(N)=O)C(=O)N[C@@H](Cc3cccnc3)C(=O)N(C)CC(N)=O)CCOCC2)NC1=O [Example 105, MeCO-Pen*-N-T-7MeW-K(Ac)-Pen*-AEF-2Nal-THP-K(PEG2PEG2PgEC18OH)-N-3Pya-Sar-CONH2] (Ac-[Pen]NT[Trp(7-Me)]K(Ac)[Pen][AEF][2Nal][Thp]K([AEEA-AEEA-Pro-γGlu-C18 diacid])N[3Pal][Sar]-NH2; disulfide 1-6)
10.32 | CC(=O)NCCCC[C@@H]1NC(=O)[C@H](Cc2c[nH]c3c(C)cccc23)NC(=O)[C@H]([C@@H](C)O)NC(=O)[C@H](CC(N)=O)NC(=O)[C@@H](NC(C)=O)C(C)(C)SSC(C)(C)[C@@H](C(=O)N[C@@H](Cc2ccc(OCCN)cc2)C(=O)N[C@@H](Cc2ccc3ccccc3c2)C(=O)NC2(C(=O)N[C@@H](CCCCNC(=O)COCCOCCNC(=O)COCCOCCNC(=O)CC[C@H](NC(=O)CCCCCCCCCOc3ccc(C(=O)O)cc3)C(=O)O)C(=O)N[C@@H](CC(N)=O)C(=O)N[C@@H](Cc3cccnc3)C(=O)N(C)CC(N)=O)CCOCC2)NC1=O [Example 111, MeCO-Pen*-N-T-7MeW-K(Ac)-Pen*-AEF-2Nal-THP-K(PEG2PEG2gEpXOH)-N-3Pya-Sar-CONH2] (Ac-[Pen]NT[Trp(7-Me)]K(Ac)[Pen][AEF][2Nal][Thp]K([AEEA-AEEA-γGlu-Decanoyl(10-(4-HOOC-PhO))])N[3Pal][Sar]-NH2; disulfide 1-6)
10.11 | CC(=O)NCCCC[C@@H]1NC(=O)[C@H](Cc2c[nH]c3c(C)cccc23)NC(=O)[C@H]([C@@H](C)O)NC(=O)[C@H](CC(N)=O)NC(=O)[C@@H](NC(C)=O)C(C)(C)SSC(C)(C)[C@@H](C(=O)N[C@@H](Cc2ccc(OCCN)cc2)C(=O)N[C@@H](Cc2ccc3ccccc3c2)C(=O)NC2(C(=O)N[C@@H](CCCCNC(=O)COCCOCCNC(=O)COCCOCCNC(=O)C[N+](C)(C)CCNC(=O)CC[C@H](NC(=O)CCCCCCCCCCCCCCCCC(=O)O)C(=O)O)C(=O)N[C@@H](CC(N)=O)C(=O)N[C@@H](Cc3cccnc3)C(=O)N(C)CC(N)=O)CCOCC2)NC1=O [Example 118, MeCO-Pen*-N-T-7MeW-K(Ac)-Pen*-AEF-2Nal-THP-K(PEG2PEG2SP6gEC18OH)-N-3Pya-Sar-CONH2] (Ac-[Pen]NT[Trp(7-Me)]K(Ac)[Pen][AEF][2Nal][Thp]K([AEEA-AEEA-X7])N[3Pal][Sar]-NH2; disulfide 1-6)
10.08 | CC(=O)NCCCC[C@@H]1NC(=O)[C@H](Cc2c[nH]c3c(C)cccc23)NC(=O)[C@H]([C@@H](C)O)NC(=O)[C@H](CC(N)=O)NC(=O)[C@@H](NC(C)=O)C(C)(C)SSC(C)(C)[C@@H](C(=O)N[C@@H](Cc2ccc(OCCN)cc2)C(=O)N[C@@H](Cc2ccc3ccccc3c2)C(=O)NC2(C(=O)N[C@@H](CCCCNC(=O)C[N+](C)(C)CCNC(=O)COCCOCCNC(=O)COCCOCCNC(=O)CC[C@H](NC(=O)CCCCCCCCCCCCCCCCC(=O)O)C(=O)O)C(=O)N[C@@H](CC(N)=O)C(=O)N[C@@H](Cc3cccnc3)C(=O)N(C)CC(N)=O)CCOCC2)NC1=O [Example 124, MeCO-Pen*-N-T-7MeW-K(Ac)-Pen*-AEF-2Nal-THP-K(SP6 PEG2PEG2gE C18OH)-N-3Pya-Sar-CONH2] (Ac-[Pen]NT[Trp(7-Me)]K(Ac)[Pen][AEF][2Nal][Thp]K(X2)N[3Pal][Sar]-NH2; disulfide 1-6)

The remaining lines, values behind:

Structure (SMILES) | pIC50
CC(=O)NCCCC[C@@H]1NC(=O)[C@H](Cc2c[nH]c3c(C)cccc23)NC(=O)[C@H]([C@@H](C)O)NC(=O)[C@H](CC(N)=O)NC(=O)[C@@H](NC(C)=O)C(C)(C)SSC(C)(C)[C@@H](C(=O)N[C@@H](Cc2ccc(OCCN)cc2)C(=O)N[C@@H](Cc2ccc3ccccc3c2)C(=O)NC2(C(=O)N[C@@H](CCCCNC(=O)COCCOCCNC(=O)COCCOCCNC(=O)[C@@H]3CCCN3C(=O)[C@@H]3CCCN3C(=O)[C@@H]3CCCN3C(=O)CC[C@H](NC(=O)CCCCCCCCCCCCCCCCC(=O)O)C(=O)O)C(=O)N[C@@H](CC(N)=O)C(=O)N[C@@H](Cc3cccnc3)C(=O)N(C)CC(N)=O)CCOCC2)NC1=O [Example 107, MeCO-Pen*-N-T-7MeW-K(Ac)-Pen*-AEF-2Nal-THP-K(PEG2PEG2PPPgEC18OH)-N-3Pya-Sar-CONH2] | 10.05
CC(=O)NCCCC[C@@H]1NC(=O)[C@H](Cc2c[nH]c3c(C)cccc23)NC(=O)[C@H]([C@@H](C)O)NC(=O)[C@H](CC(N)=O)NC(=O)[C@@H](NC(C)=O)C(C)(C)SSC(C)(C)[C@@H](C(=O)N[C@@H](Cc2ccc(OCCN)cc2)C(=O)N[C@@H](Cc2ccc3ccccc3c2)C(=O)NC2(C(=O)N[C@@H](CCCCNC(=O)COCCOCCNC(=O)COCCOCCNC(=O)[C@H]3CCCN3C(=O)[C@H]3CCCN3C(=O)[C@H]3CCCN3C(=O)CC[C@H](NC(=O)CCCCCCCCCCCCCCCCC(=O)O)C(=O)O)C(=O)N[C@@H](CC(N)=O)C(=O)N[C@@H](Cc3cccnc3)C(=O)N(C)CC(N)=O)CCOCC2)NC1=O [Example 108, MeCO-Pen*-N-T-7MeW-K(Ac)-Pen*-AEF-2Nal-THP-K(PEG2PEG2pppgEC18OH)-N-3Pya-Sar-CONH2] | 9.82
CC(=O)NCCCC[C@@H]1NC(=O)[C@H](Cc2c[nH]c3c(C)cccc23)NC(=O)[C@H]([C@@H](C)O)NC(=O)[C@H](CC(N)=O)NC(=O)[C@@H](NC(C)=O)C(C)(C)SSC(C)(C)[C@@H](C(=O)N[C@@H](Cc2ccc(OCCN)cc2)C(=O)N[C@@H](Cc2ccc3ccccc3c2)C(=O)NC2(C(=O)N[C@@H](CCCCNC(=O)[C@H](CNC(=O)CCCCCCCCCCCCCCC(=O)O)NC(=O)CCCCCCCCCCCCCCC(=O)O)C(=O)N[C@@H](CC(N)=O)C(=O)N[C@@H](Cc3cccnc3)C(=O)N(C)CC(N)=O)CCOCC2)NC1=O [Example 114, MeCO-Pen*-N-T-7MeW-K(Ac)-Pen*-AEF-2Nal-THP-K(DAP-(C16OH)2)-N-3Pya-Sar-CONH2] (Ac-[Pen]NT[Trp(7-Me)]K(Ac)[Pen][AEF][2Nal][Thp]K(X4)N[3Pal][Sar]-NH2; disulfide 1-6) | 9.82
CC(=O)NCCCC[C@@H]1NC(=O)[C@H](Cc2c[nH]c3c(C)cccc23)NC(=O)[C@H]([C@@H](C)O)NC(=O)[C@H](CC(N)=O)NC(=O)[C@@H](NC(C)=O)C(C)(C)SSC(C)(C)[C@@H](C(=O)N[C@@H](Cc2ccc(OCCN)cc2)C(=O)N[C@@H](Cc2ccc3ccccc3c2)C(=O)NC2(C(=O)N[C@@H](CCCCNC(=O)COCCOCCNC(=O)COCCOCCNC(=O)CC[C@H](NC(=O)[C@H](CNC(=O)CCCCCCCCCCCCCCC(=O)O)NC(=O)CCCCCCCCCCCCCCC(=O)O)C(=O)O)C(=O)N[C@@H](CC(N)=O)C(=O)N[C@@H](Cc3cccnc3)C(=O)N(C)CC(N)=O)CCOCC2)NC1=O [Example 116, MeCO-Pen*-N-T-7MeW-K(Ac)-Pen*-AEF-2Nal-THP-K(PEG2PEG2gE-DAP(C16OH)2)-N-3Pya-Sar-CONH2] | 9.82
CC(=O)NCCCC[C@@H]1NC(=O)[C@H](Cc2c[nH]c3c(C)cccc23)NC(=O)[C@H]([C@@H](C)O)NC(=O)[C@H](CCCCNC(=O)COCCOCCNC(=O)COCCOCCNC(=O)CC[C@H](NC(=O)CCCCCCCCCCCCCCCCC(=O)O)C(=O)O)NC(=O)[C@@H](NC(C)=O)C(C)(C)SSC(C)(C)[C@@H](C(=O)N[C@@H](Cc2ccc(OCCN)cc2)C(=O)N[C@@H](Cc2ccc3ccccc3c2)C(=O)NC2(C(=O)N[C@@H](CCCCNC(C)=O)C(=O)N[C@@H](CC(N)=O)C(=O)N[C@@H](Cc3cccnc3)C(=O)N(C)CC(N)=O)CCOCC2)NC1=O [Example 122, MeCO-Pen*-K(PEG2PEG2gEC18OH)-T-7MeW-K(Ac)-Pen*-AEF-2Nal-THP-K(Ac)-N-3Pya-Sar-CONH2] (Ac-[Pen]K([AEEA-AEEA-γGlu-C18 diacid])T[Trp(7-Me)]K(Ac)[Pen][AEF][2Nal][Thp]K(Ac)N[3Pal][Sar]-NH2; disulfide 1-6) | 10.08
CC(=O)NCCCC[C@@H]1NC(=O)[C@H](Cc2c[nH]c3c(C)cccc23)NC(=O)[C@H]([C@@H](C)O)NC(=O)[C@H](CC(N)=O)NC(=O)[C@@H](NC(C)=O)C(C)(C)SSC(C)(C)[C@@H](C(=O)N[C@@H](Cc2ccc(OCCN)cc2)C(=O)N[C@@H](Cc2ccc3ccccc3c2)C(=O)NC2(C(=O)N[C@@H](CCCCNC(=O)COCCOCCNC(=O)COCCOCCNC(=O)CC[C@H](NC(=O)C[N+](C)(C)CCNC(=O)CCCCCCCCCCCCCCCCC(=O)O)C(=O)O)C(=O)N[C@@H](CC(N)=O)C(=O)N[C@@H](Cc3cccnc3)C(=O)N(C)CC(N)=O)CCOCC2)NC1=O [Example 123, MeCO-Pen*-N-T-7MeW-K(Ac)-Pen*-AEF-2Nal-THP-K(PEG2PEG2 gE SP6 C18OH)-N-3Pya-Sar-CONH2] (Ac-[Pen]NT[Trp(7-Me)]K(Ac)[Pen][AEF][2Nal][Thp]K([AEEA-AEEA-γGlu-X6])N[3Pal][Sar]-NH2; disulfide 1-6) | 10.14

— US12478617B2, “Lipidated peptide inhibitors of interleukin-23 receptor” (JANSSEN BIOTECH, INC., priority 2021, dated 2025)
